“And” between values parts separate entries of the source, which are not always exact repeats. Identical values can stand only once. Like-named read-outs stand apart in the source and are kept apart here. Marks after values point to notes of the source that are not given here.
Legend:
[1] = system: collagen type II-induced arthritis (CIA); conditions: mouse, in vivo
[2] = system: allergic contact dermatitis response in mice; test: Allergic contact dermatitis (TDI) model in mice, mouse ear swelling test; assay type: in vivo
Protocol: The anti-inflammatory and anti-allergic effects of compounds 1a and 1c were assessed in a mouse model of allergic contact dermatitis, a response driven primarily by T helper type 2 (Th2) cells. […] In this model, an allergic dermatitis response is obtained by sensitizing mice to TDI and subsequently challenging them with antigen by topical administration onto the ears. A quantitative assessment of anti-inflammatory and anti-allergic effects of topically or orally administered test compounds is possible by measuring the resulting ear swelling. The advantages of the allergic contact dermatitis model (Zöllner et al., Bioessays 26:693-6 (2004)) are reproducibility and reliability (>90% of BALB/c mice respond to sensitization), a short induction protocol, quantitative assessment by measuring ear thickness, atopic dermatitis-like skin lesions can be induced, and clinically relevant pharmaceuticals, such as corticosteroids, calcineurin-inhibitors and PDE4-inhibitors, are effective in this model.
Female BALB/c-mice were obtained from Charles River (Sulzfeld, Germany) at age 8 weeks. All animals were housed in groups of eight per cage at 22° C. with a 12 h light/dark-cycle, Water and a standard diet (Altromin, Lage/Lippe, Germany) were available ad libitum. All animals were acclimatized for one week before experimental procedures were commenced.
Experimental procedures for BALB/c mice housing, TDI sensitization and challenge, and measurement of ear thickness were performed as previously described (Baumer et al., J Pharm Pharmacol, 55:1107-1114 (2003)) with the following modifications. For active sensitization, 100 μL of 5% (w/v) TDI was administered to the shaved and stripped abdominal epidermis on day one, and for the next three consecutive days, 50 μL of 5% (My) TDI was applied. The allergic reaction was boosted 21 days later by application of 50 μL of 0.5% (w/v) TDI. For the examination of test compound effects, the left ears were used for the TDI challenge (20 μL of 0.5% in acetone) and ear thickness measured 3 h before and 24 h after challenge.
Group size was n=7 mice unless otherwise stated. Test compounds were freshly prepared before administration.
Administration time: to determine optimal time for administration treatment groups were treated orally by gavage with 100 mg/kg of compound 1a or 1c (suspended in 0.5% tylose, 10 mL/kg) 1, 4 or 16 h before topical TDI challenge. One group was treated with 100 mg/kg miltefosine orally, 16 h before challenge (based on available data for optimal administration time for miltefosine) and vehicle treated mice received tylose (10 mL/kg) orally, 4 h before challenge.
Dose-response: two groups of mice were treated orally with compound 1a at 25 mg/kg or 100 mg/kg suspended in 0.5% tylose, 4 h before topical TDI challenge. Vehicle treated mice received 0.5% tylose orally 4 h before challenge. As a positive control, dexamethasone was administered in saline solution at 1 mg/kg or 3 mg/kg, 2 h and 30 min before challenge and 1 h after challenge. The dose and dosing scheme for dexamethasone was based on previous experience showing a maximal effect in this model.
Compound 1a was administered to two groups of mice topically in 20 μl of a 2% or 6% solution in propyleneglycol. The suspension was heated to 60° C. and mixed using a thermomixer (Eppendorf) until it became clear. The solution was applied, 2 h before topical TDI challenge by administration of 10 μl onto each of the inner and outer surfaces of the left ears. A vehicle group (17=5) was treated with propyleneglycol. As a positive control, diflorasone, diacetate was administered at 0.01% (low dose) and 0.05% (high dose) in 20 μl acetone, 2 h before challenge. A basal control group was left untreated.
Mean and standard error of the mean (SEM) were calculated from individual ear edema values. […]

DTH response in mice = assay type: in vivo; conditions: for Inhibition of mouse ear swelling: DTH, 24 h after challenge
Protocol: The anti-inflammatory and anti-allergic effects of compounds 1a and 1c were assessed in a mouse model of skin delayed-type hypersensitivity (DTH) reactions and compared to a vehicle control and to the reference drug dexamethasone. DTH reactions are antigen-specific cell-mediated immune responses, driven primarily by T helper type 1 (Th1) cells, similar to the tuberculin immunization response. The immune reaction induced by an ovalbumin challenge to animals previously sensitized with ovalbumin in Complete Freund's Adjuvant, is characterized by swelling (edema) at the site of challenge, e.g. the mouse ear. Dexamethasone, an anti-inflammatory steroid, reduces cell-mediated immune responses and was employed to validate the responsiveness of the assay to pharmacological treatment.
Female BALB/cJW mice were bred at the University of Lodz, Lodz, Poland and housed in groups of 8 in makrolon cages with a 12 h light-dark cycle. Mice were given free access to food (Agropol S.j., Motycz, Poland) and water.
Sensitization: The protein antigen, ovalbumin, was reconstituted in PBS at 4 mg/ml. An ovalbumin-CFA emulsion was prepared by mixing the protein solution with the CFA suspension at a ratio of 1:1, using two Luer-lock syringes. The emulsion was tested by putting a drop of emulsion onto PBS; if the emulsion remained as a tight droplet on the PBS, the emulsion was deemed ready. Mice were sensitized by subcutaneously injecting 25 μL of emulsion into each side of the tail (100 μg ovalbumin per mouse).
Challenge: On the sixth day after sensitization, DTH was elicited by challenging animals subcutaneously (gauge 30 needle, B. Braun Melsungen, Melsungen, Germany) in the left ears with 10 μL of a 1% suspension of heat-aggregated ovalbumin (HOVA) (100 μg ovalbumin per mouse). The right ears were administered subcutaneously with PBS and served to determine the individual differences in ear thicknesses. HOVA was prepared by heating a 5% solution of ovalbumin in saline for 1 h at 80° C. with occasional swirling. After cooling to room temperature and centrifugation (400 g. 10 min at 4° C.), the pellet was washed twice with saline, resuspended at 2% in PBS and aliquots stored at −30° C. Before injection, HOVA was diluted with an equal volume of PBS and sonicated. Ear thickness was measured with a precise spring-loaded caliper (Art. No. 7309, Mitutoyo, Kawasaki, Japan) before challenge, and 24 h after challenge.
Sensitization, challenge and ear thickness measurement were performed under anesthesia (ketamine 80 mg/kg plus xylazine 8 mg/kg, intraperitoneally).
The anti-inflammatory effects of compounds 1a and 1c were compared to a vehicle control (0.5% methyl cellulose solution) and to the reference drug, dexamethasone. Test compounds were given at 25 or 100 mg/kg orally by gavage (Art. No. 432093, Harvard Apparatus GmbH, March-Hugstetten, Germany) 16 h and 3 h before sensitization and then twice daily with the final dose given 3 h prior to ear challenge (a total of 14 administrations). Dexamethasone was given at 0.1 or 1 mg/kg orally by gavage 3 h before sensitization and once daily with the final dose given 3 h prior to antigen challenge (a total of 7 administrations). All administrations were given in a volume of 10 ml/kg.
To account for individual variability, the increase in right ear thickness, before and 24 h after administration of PBS, was subtracted from the HOVA-induced increase in left ear thickness. The increase in ear thickness was calculated by the difference between ear thickness before and 24 h after antigen challenge. Percent inhibition of ear swelling was calculated according to the following formula: % inhibition=100×(IETvehicle−IETcompound)/IETvehicle where IET=(ET24 hrs pc−ETpredose)HOVA-treated ears−(ET24 hrs pc−ETpredose)PBS-treated ears • (IET, increase ear thickness; ET, ear thickness; pc, post challenge)
Mean and standard deviation (SD) were calculated from individual ear edema values. […]

RBL-2H3 cells [3] = test: Inhibition of mast cell degranulation (β-hexosaminidase release); assay type: cell-based; conditions: Rattus norvegicus, IgE-sensitized RBL-2H3 cells, 1 h with compound, antigen (DNP-HSA) 15 min
Text: Mast cells are key effector cells involved in allergic and inflammatory diseases, and the Rat Basophilic Leukemia clone 2H3 (RBL-2H3) cell line is a commonly used model of allergen dependent immune modulator release (degranulation) in mast cells. On their surface, they express the high affinity receptor for IgE (FcεRI). Upon binding of antigen-specific IgE to the receptor, cells become sensitized to the IgE specific antigen (allergen). When IgE-sensitized cells then encounter multivalent antigen, the antigen clusters IgE-FcεRI complexes and initiates a signal transduction cascade that leads to degranulation, that is, the release of inflammatory mediators, such as cytokines, eicosanoids, histamine and enzymes. The assay can be used as a screening method to identify immune-modulating compounds, in particular compounds useful in the medical management of allergic and inflammatory diseases and asthma, β-hexosaminidase was previously shown to be released with the same kinetics as histamine (Schwartz et al., J Immunology; 123:1445-1450 (1979)), thus offering a simple means to monitor degranulation. […]
MUG substrate solution, 100 μl, were added to supernatant and lysate samples and plates were incubated 30 min at 37° C. […] Fluorescence was measured at 365 nm excitation and 440 nm emission wavelengths. […]

RBL-2H3 cells [4] = test: Maximum tolerated concentration (cytotoxicity by lactate dehydrogenase release); assay type: cell-based, Rat
Text: The safety index (SI) of a test compound is the ratio between the maximum tolerated concentration and the IC50 and is used as a measure of the relative safety of the test compound.

| SMILES | spleen and thymus weights [1] | Inhibition of mouse ear swelling ([2]; dose-response study, 1 mg/kg, 2 h and 30 min before and 1 h after challenge) | Inhibition of mouse ear swelling ([2]; dose-response study, 1 mg/kg, 2 h and 30 min before and 1 h after challenge, listed as dexamethasone) [%] | Inhibition of mouse ear swelling ([2]; dose-response study, 3 mg/kg, 2 h and 30 min before and 1 h after challenge) | Inhibition of mouse ear swelling ([2]; dose-response study, 3 mg/kg, 2 h and 30 min before and 1 h after challenge, listed as dexamethasone) [%] | Inhibition of mouse ear swelling (DTH response in mice; 0.1 mg/kg orally once daily (7 administrations)) [%] | Inhibition of mouse ear swelling (DTH response in mice; 1.0 mg/kg orally once daily (7 administrations)) [%] | loss in body weight (DTH response in mice; mouse, in vivo, po, 1 mg/kg) [%] | IC50 (RBL-2H3 cells [3]) [µM] | inhibitory efficacy relative to that of 1a at its optimal administration time of 4 h ([2]; 100 mg/kg oral, 16 h before challenge vs 1a 4 h) [%] | inhibitory efficacy relative to that of compound 1c at its optimal administration time of 4 h ([2]; 100 mg/kg oral, 16 h before challenge vs 1c 4 h) [%] | Inhibition of mouse ear swelling ([2]; administration time study, 100 mg/kg oral, 16 h before TDI challenge) | MTC (maximum tolerated concentration) (RBL-2H3 cells [4]; highest concentration not causing cytotoxicity (LDH release), RBL-2H3 cells) [µM] | SI (safety index) (RBL-2H3 cells [4]; ratio between MTC and IC50) |
| --- | --- | --- | --- | --- | --- | --- | --- | --- | --- | --- | --- | --- | --- | --- |
| C[C@@H]1C[C@H]2[C@@H]3CCC4=CC(=O)C=C[C@]4(C)[C@@]3(F)[C@@H](O)C[C@]2(C)[C@@]1(O)C(=O)CO [Dexamethasone, reference compound] | markedly reduced | 78.6*** % | 78 | 87.1*** % | 87 | 14 | 53 | 9 | – | – | – | – | – | – |
| CCCCCCCCCCCCCCCCOP(=O)([O-])OCC[N+](C)(C)C [Miltefosine, reference compound] | – | – | – | – | – | – | – | – | 4.2 | 64 | 69 | 47% and 47.3^§ % | 25 | 6.0 |
